Literature values in patent publication US11559637B2, “Inhalers and related methods” (Norton (Waterford) Limited, priority 2017, dated 2023).

- surface tension (as liquid at 25° C.): about 8 mN/m
- vapor pressure (at 20° C.): 572 kpa
Structure (SMILES): FCC(F)(F)F [HFA134a, 1,1,1,2-tetrafluoroethane]
